Assay results taken from paper PMC9145144, “Virtual Screening and Hit Selection of Natural Compounds as Acetylcholinesterase Inhibitors” (Molecules, 2022).
Values after ≈ are worked out from the molar mass of the structure shown. Values joined by “and” are separate entries in the source; they are usually repeats but may differ in a detail not shown here. Identical values can stand only once. “Also recorded” adds a separate entry of the source. Like-named read-outs stand apart in the source and are kept apart here.

Tests used:
[1] = biological target: acetylcholinesterase from Electrophorus electricus (Electrophorus electricus, UniProt O42275); experiment: biochemical; assay type: biochemical; conditions: for IC50: triplicate, means ± SD, na = not active
[2] = ABTS radical scavenging activity; conditions: for antioxidant activity (in words): ABTS radical scavenging; for ABTS (%) radical scavenging activity: absorbance at 734 nm after 7 min, triplicate, means ± SD, BHT 1 mM in MeOH, na = not active
Protocol: […] (ABTS), potassium persulphate, and butylhydroxy toluol (BHT) were purchased from Sigma-Aldrich. For ABTS assay, the procedure followed the method of Grochowski et al. with some modifications. The stock solutions included 7 mM ABTS solution and 2.4 mM potassium persulphate solution. The working solution was then prepared by mixing the two stock solutions in equal quantities and allowing them to react for 14 h at room temperature in the dark. […] A fresh ABTS solution was prepared for each assay. […] of each com-pound (125 μL) was allowed to react with 1850 μL of the ABTS solution, and the absorbance was taken at 734 nm after 7 min. The control contains 125 μL methanol and 1850 μL of the ABTS solution. All determinations were performed in triplicate (n = 3). The results were expressed as % ABTS activity, using the following equation: % ABTS radical scavenging activity = ((Acontrol − Asample)/Acontrol) × 100, where Acontrol is the absorbance of the control, while Asample is the absorbance of the sample. Butylhydroxytoluene (BHT) (1 mM in MeOH) was used as a positive control.

[3] = parameters: method as in doi:10.1016/j.phytol.2015.03.012; conditions: cited from earlier work
NMDA receptor = NMDA receptor antagonists; cited from earlier work
AChE = conditions: cited from earlier work
BChE = conditions: cited from earlier work
[4] = Ellman's method, read-out: IC50

Chain of acetylcholinesterase from Electrophorus electricus (O42275 24-633): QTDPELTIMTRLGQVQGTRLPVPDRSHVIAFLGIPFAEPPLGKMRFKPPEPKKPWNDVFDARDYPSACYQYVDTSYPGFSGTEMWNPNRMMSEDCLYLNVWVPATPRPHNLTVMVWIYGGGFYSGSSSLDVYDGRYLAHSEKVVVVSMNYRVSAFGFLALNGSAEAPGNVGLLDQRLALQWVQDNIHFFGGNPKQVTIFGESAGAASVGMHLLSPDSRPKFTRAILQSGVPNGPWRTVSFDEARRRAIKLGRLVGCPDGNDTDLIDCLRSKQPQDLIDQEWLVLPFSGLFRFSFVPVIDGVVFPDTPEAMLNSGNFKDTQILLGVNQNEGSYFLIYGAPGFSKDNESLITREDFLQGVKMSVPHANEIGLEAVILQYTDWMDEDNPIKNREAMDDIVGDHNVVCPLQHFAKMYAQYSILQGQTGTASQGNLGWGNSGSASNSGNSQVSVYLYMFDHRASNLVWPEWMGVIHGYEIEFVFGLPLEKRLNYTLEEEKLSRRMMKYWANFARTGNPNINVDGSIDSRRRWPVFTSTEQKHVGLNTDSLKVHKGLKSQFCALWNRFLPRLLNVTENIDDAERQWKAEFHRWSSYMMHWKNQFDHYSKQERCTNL

Row | Compound | AChE inhibitory activity (in words) ([1]; Ellman's method) | ABTS (%) radical scavenging activity [2] | IC50 [1, 4] | other results
1 | CC(=O)Nc1ccc(N[C@@H]2OC(=O)c3c2c2ccccc2n3C)cc1 [Compound 16, (R)-N-(4-((4-methyl-3-oxo-3,4-dihydro-1H-furo [3,4-b]indol-1-yl)amino)phenyl)acetamide] | no AChE activity | 95.82% and 95.82 ± 0.21% |  | antioxidant activity (in words) [2]: higher than that of the positive control
2 | CC1CCc2c([nH]c3ccccc23)C2(N1)C(=O)Nc1ccccc12 (centres unmarked) [Compound 28, 3-methyl-1′,2′,3,4,5,10-hexahydro-2H-spiro[azepino [3,4-b]indole-1,3′-indol]-2′-one] | micromolar range; also recorded: micro- to low millimolar range | 80.94% and 70.55 ± 0.85% | 620 ± 140 µM | antioxidant activity (in words) [2]: high antioxidant activity
3 | C=CCN1C(=O)C2(NCCc3c2[nH]c2ccc(C)cc32)c2ccccc21 (centres unmarked) [Compound 29, 6′-methyl-1-(prop-2-en-1-yl)-1,2,2′,3′,4′,9′-hexahydrospiro[indole-3,1′-pyrido [3,4-b]indol]-2-one] | micro- to low millimolar range | 70.55% and 80.94% and 80.94 ± 0.94% | > 5000 µM and 5700 µM | antioxidant activity (in words) [2]: high antioxidant activity
4 | O=C(Cn1ccc2ccc(F)cc21)NC[C@@H]1CCCN2CCCC[C@H]12 [Compound 9, N-{[(1S,9aR)-octahydro-1H-quinolizin-1-yl]methyl}-2-(6-fluoro-1H-indol-1-yl)acetamide] | micro- to low millimolar range | 6.43% and 6.43 ± 0.85% | 1000 to 2000 µM and 1800 µM | 
5 | O=C1O[C@H]([C@@H](O)CO)C(O)=C1O [ascorbic acid] |  |  |  | IC50 scavenging activity in the ABTS model [3]: 105.90 µg/mL (≈ 601 µM)
6 | O=C(/C=C/c1ccccc1)N1C[C@@H]2C[C@H](C1)c1cccc(=O)n1C2 [Compound 22, (1S,9R)-11-[(2E)-3-phenylprop-2-enoyl]-7,11-diazatricyc lotrideca-2,4-dien-6-one] | micromolar range; also recorded: micro- to low millimolar range |  |  | IC50 ([1]; IC50, Ellman's method): 390 ± 160 µM
7 | CC[C@H]1C[C@@H]2CN3CCc4c([nH]c5ccccc45)[C@](C(=O)OC)(C2)[C@H]13 [coronaridine] |  |  |  | Ki (NMDA receptor): 6.2 µM
8 | Ibogaine |  |  |  | Ki (NMDA receptor): 1.1 µM
9 | O=c1cccc2n1C[C@@H]1CNC[C@H]2C1 [Cytisine] |  |  |  | inhibition of AChE (in words) (AChE): does not inhibit; inhibition of BChE (in words) (BChE): does not inhibit
10 | Cc1ccc(NC(=O)C[C@H]2NCCc3c([nH]c4ccccc34)C2=O)cc1 [Compound 21, N-(4-methylphenyl)-2-{5-oxo-1H,2H,3H,4H,5H,6H-azepino [4,5-b]indol-4-yl} acetamide] | micro- to low millimolar range | 34.68% and 34.68 ± 1.27% | 1000 to 2000 µM and 1200 µM | 
11 | O=C1C2CCCN2C(=O)c2ccccc2N1CCc1ccccc1 (centres unmarked) [Compound 17] |  |  | > 10000 µM | 
12 | Cc1cc(C(C)(C)C)c(O)c(C(C)(C)C)c1 [BHT, butylhydroxytoluene, reference compound] |  | 92.38% and 92.38 ± 0.21% |  | 
